Test results published in patent US9365546B2, “Substituted pyridinone-pyridinyl compounds” (CONFLUENCE LIFE SCIENCES INC., priority 2010, dated 2016).
Where “and” joins values, the source holds several entries; their conditions need not be identical. Equal entries are not always repeated.

Legend:
[1] = target: p38/PRAK (Homo sapiens (Human), UniProt Q16539); experiment: p38α/PRAK cascade assay (phosphorylation of Hsp27 peptide, Caliper LabChip 3000); assay type: biochemical; conditions: activated p38α 20 pM, GST-PRAK 1 nM, Hsp27 peptide 1 μM, MgATP 10 μM; two values per cell
Procedure: (§1) P38 Inhibitory Potency and P38/MK2 Substrate Selectivity: The novel, MK2 substrate-selective inhibitory mechanism of compounds is evaluated in enzyme assays comparing inhibitor potency in blocking p38/MK2 versus p38/PRAK induced phosphorylation of an HSP-27 derived peptide substrate. The ability of compounds to inhibit activated phospho-p38α is evaluated using a p38α/MK2 and a p38α/PRAK cascade assay format. The kinase activity of p38α is determined by its ability to phosphorylate GST-MK2 or GST-PRAK. Activation of MK2 or PRAK by p38α is quantitated by measuring the phosphorylation of a fluorescently-labeled, MK2 specific peptide substrate, Hsp27 peptide ([…]). The phosphorylation of the Hsp27 peptide is quantified using the Caliper LabChip 3000. Kinase reactions is carried out in a 384-well plate (Matrical, MP101-1-PP) in 20 mM HEPES pH 7.5, 10 mM MgCl2, 0.0005% Tween-20, 0.01% BSA, 1 mM DTT, and 2% DMSO. […] The p38α compound inhibitory potency is quantitated from dose-response IC50 values or Ki values from p38α/MK2 cascade assays while the substrate selectivity is calculated as a ratio of p38α/PRAK:p38α/MK2 IC50 values. Species compounds of Formula (I), described hereinabove, evaluated in this assay, are expected to provide a therapeutic benefit in the treatment of p38 kinase mediated diseases, such as autoimmune diseases and lymphoma.

[2] = target: p38/MK2 (Homo sapiens (Human), UniProt Q16539); experiment: p38α/MK2 cascade assay (phosphorylation of Hsp27 peptide, Caliper LabChip 3000); assay type: biochemical; conditions: activated p38α 20 pM, His6-MK2 1 nM, Hsp27 peptide 1 μM, MgATP 10 μM; two values per cell
Procedure: as §1, with “The kinase activity of p38α is determined by its ability to phosphorylate GST-MK2 or GST-PRAK.” left out

p38/MK2, sequence (Q16539 whole entry): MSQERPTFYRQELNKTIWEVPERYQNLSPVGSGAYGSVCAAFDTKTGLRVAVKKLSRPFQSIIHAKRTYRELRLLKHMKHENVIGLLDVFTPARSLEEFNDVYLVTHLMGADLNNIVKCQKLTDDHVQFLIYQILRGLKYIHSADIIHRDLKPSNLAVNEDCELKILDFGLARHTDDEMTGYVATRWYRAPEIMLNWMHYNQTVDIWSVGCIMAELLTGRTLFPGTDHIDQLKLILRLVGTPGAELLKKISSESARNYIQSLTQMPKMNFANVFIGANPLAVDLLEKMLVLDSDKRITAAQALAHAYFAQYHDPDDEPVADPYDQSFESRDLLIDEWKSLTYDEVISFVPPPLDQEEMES
p38/MK2, sequence (P49137 whole entry partner): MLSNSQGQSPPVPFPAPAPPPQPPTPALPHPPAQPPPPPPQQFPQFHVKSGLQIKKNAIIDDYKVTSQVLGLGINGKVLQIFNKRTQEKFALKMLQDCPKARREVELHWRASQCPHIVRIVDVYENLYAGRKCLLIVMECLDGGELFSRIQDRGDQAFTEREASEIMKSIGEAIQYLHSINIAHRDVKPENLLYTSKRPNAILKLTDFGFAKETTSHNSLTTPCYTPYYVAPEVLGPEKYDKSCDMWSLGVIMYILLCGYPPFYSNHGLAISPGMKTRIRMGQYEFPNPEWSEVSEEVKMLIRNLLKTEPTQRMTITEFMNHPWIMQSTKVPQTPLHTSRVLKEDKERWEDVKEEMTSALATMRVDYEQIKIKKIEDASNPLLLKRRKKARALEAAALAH
p38/PRAK, sequence (Q16539 whole entry): as the sequence (Q16539 whole entry) above

Row | Structure (SMILES) | IC50 [1] | IC50 [2]
1 | Cc1cnc(-c2ccnc(C(C)(C)C)n2)cc1-n1c(C)cc(OCc2ccc(F)cc2F)c(Cl)c1=O [Example 285, 2′-(2-(tert-butyl)pyrimidin-4-yl)-3-chloro-4-((2,4-difluorobenzyl)oxy)-5′,6-dimethyl-2H-[1,4′-bipyridin]-2-one] | 121 nM and 210 nM | 18 nM and 26 nM
2 | Cc1cnc(-c2ccnc(C(C)(C)O)n2)cc1-n1c(C)cc(OCc2ccc(F)cc2F)c(Cl)c1=O [Example 284, 3-chloro-4-((2,4-difluorobenzyl)oxy)-2′-(2-(2-hydroxypropan-2-yl)pyrimidin-4-yl)-5′,6-dimethyl-2H-[1,4′-bipyridin]-2-one] | 138 nM and 144 nM | 6.4 nM and 7.3 nM
